In patent publication US20150239831A1, “INHIBITORS OF CENTRAL NERVOUS SYSTEM VASOACTIVE INHIBITORY PEPTIDE RECEPTOR 2” (The Trustees Of Columbia University In The City Of New York, priority 2012, published 2015):

Experiments:
Type in all cases: cell-based
Set-up in all cases: expressed in transfected cells; host or cells: HEK293 cells transfected with VIPR2 in pCDNA3.1 (as described)
[1] = target: T1, VIPR2 (Homo sapiens, UniProt P41587); assay: Inhibition of VIP-induced β-arrestin recruitment (% Activity Arrestin)
T1 sequence (P41587 24-438): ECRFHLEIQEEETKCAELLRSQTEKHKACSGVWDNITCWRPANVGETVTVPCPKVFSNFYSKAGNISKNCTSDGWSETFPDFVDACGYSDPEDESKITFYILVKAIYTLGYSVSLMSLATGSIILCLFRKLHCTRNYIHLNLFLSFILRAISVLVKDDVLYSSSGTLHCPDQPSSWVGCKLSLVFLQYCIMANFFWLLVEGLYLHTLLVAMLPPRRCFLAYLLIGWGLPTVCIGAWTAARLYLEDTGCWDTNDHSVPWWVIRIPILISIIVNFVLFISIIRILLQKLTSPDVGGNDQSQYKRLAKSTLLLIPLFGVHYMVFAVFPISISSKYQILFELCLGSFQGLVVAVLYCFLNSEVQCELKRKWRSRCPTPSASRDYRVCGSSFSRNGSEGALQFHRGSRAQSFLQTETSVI
Source text: (§1) In a further non-limiting embodiment of the invention, the ability of a compound to inhibit VIPR2 GPCR activity may be tested, for example, using the PathHunter® eXpress β-Arrestin GPCR system (Discoverx Corporation, Fremont, Calif., US), as used by Chu et al., 2010, Molecular Pharmacol. 7795-101. In this assay, β-Arrestin is fused to the “Enzyme Acceptor” (“EA”), an N-terminal deletion mutant of β-gal, and the GPCR of interest is fused to a smaller (42 amino acids), weakly complementing portion of the β-gal enzyme (termed “ProLink™”). In cells that stably express these fusion proteins, the interaction of β-Arrestin and the GPCR following ligand stimulation forces the complementation of the two β-gal fragments resulting in the formation of a functional enzyme that converts substrate to detectable signal. In the absence of an interaction between the GPCR and β-Arrestin, the enzyme activity is low due to the low affinity of the two enzyme fragments. For example, a nucleic acid encoding VIPR2, for example hVIPR2, may be cloned into the ProLink vector (DiscoveRx) for GPCR-ProLink fusion protein production. Parental HEK293 cells that stably express β-arrestin2-β-gal-EA fusion protein (DiscoveRx) may be detached and transiently transfected with the VIPR2-containing vector using Fugene6 transfection reagent in suspension mode. Transfected cells in assay medium may be plated into test plates, for example at 15,000 cells/25 μl/well. After overnight incubation, 500 nl of an inhibitor or test inhibitor may be introduced into the test plate followed by 2 h incubation at 37° C., 5% CO2. Flash detection reagents may be added at 12.5 μl/well. After 5 min to 1 h of room-temperature incubation, the cell plates may be read on CLIPR (PerkinElmer Life and Analytical Sciences)or Acquest (Molecular Devices, Sunnyvale, Calif.) for luminescence signal.
(§2) A series of compounds were prepared using a synthetic method analogous to that set forth in Scheme 1, above, and then tested for their ability to inhibit VIP-induced cAMP elevation and β-arrestin recruitment.
(§3) A series of compounds were prepared using a synthetic method analogous to that set forth in Scheme 1, above, and then tested for their ability to inhibit VIP-induced cAMP elevation and β-arrestin recruitment, as described herein (Discoverx Corporation, Fremont, Calif., US). Compound activities were also tested in a BRET-based assay, as described herein. The results are shown below in Tables 1-4, above.

[2] = target: T1, VIPR2; assay: Inhibition of VIP-induced cAMP elevation (% Activity cAMP)
Source text: (§4) In a further non-limiting embodiment of the invention, the ability of a compound to inhibit VIPR2 and thereby […] a VIP-induced increase in cAMP may be measured using a Homogeneous Time-Resolved Fluorescence (“HTRF® assay; Cisbio Bioassays) as used in Chu et al., 2010, Molecular Pharmacol. 7795-101. In a method as used in Chu et al., 2010, Molecular Pharmacol. 7795-101, HEK293 cells may be transfected with nucleic acid encoding VIPR2, for example human VIPR2 (“hVIPR2”), for example comprised in a vector such as pCDNA3.1 vector. Successful transformants may then be selected, for example using 800 μg/ml G418. Clonal stable cell lines may then be generated by limited dilution to single cells and then may be clonally expanded and tested for VIP -dependent cAMP response. For the cAMP assay, about 3000-15,000 cells (in about 4-25 μl) may be placed in a well of an assay plate. The next day, inhibitor or test inhibitor and VIP may be added in a volume about 1-2 percent of the initial volume. Assay plates may then be returned to a cell incubator for 30 min before addition of a one-half volume of cAMP conjugate and, relative to the amount of cAMP conjugate, an equal volume of anti-cAMP conjugate (Cisbio). After at least 1 h of room-temperature incubation, HTRF signal may be read, for example using Viewlux or EnVision (PerkinElmer Life and Analytical Sciences, Waltham, Mass.). The ratio of […] at 665 nm and 620 nm times 10,000 may be calculated and plotted.
as §2, §3

[3] = target: T1, VIPR2; assay: % Activity: inhibition of VIP-induced cAMP elevation and β-arrestin recruitment (Table 2)
Source text: as §4, §1, §3

Row | SMILES | inhibition at 0.5 µM ([1]; Batch 2) [%] | inhibition at 1 µM ([1]; Batch 2) [%] | inhibition at 5 µM ([1]; Batch 2) [%] | inhibition at 0.5 µM ([2]; Batch 2) [%] | inhibition at 1 µM ([2]; Batch 2) [%] | inhibition at 5 µM ([2]; Batch 2) [%] | % Activity [3] [%] | inhibition at 0.5 µM ([1]; Batch 1) [%] | inhibition at 1 µM ([1]; Batch 1) [%] | inhibition at 5 µM ([1]; Batch 1) [%] | inhibition at 0.5 µM ([2]; Batch 1) [%] | inhibition at 1 µM ([2]; Batch 1) [%] | inhibition at 5 µM ([2]; Batch 1) [%] | inhibition at 0.5 µM ([1]; Batch 3) [%] | inhibition at 1 µM ([1]; Batch 3) [%] | inhibition at 5 µM ([1]; Batch 3) [%] | inhibition at 0.5 µM ([2]; Batch 3) [%] | inhibition at 1 µM ([2]; Batch 3) [%] | inhibition at 5 µM ([2]; Batch 3) [%]
1 | C[C@H](CC(C)(C)C)NC(=O)[C@H](Cc1ccccc1)C[C@H](O)CNS(=O)(=O)c1ccc([N+](=O)[O-])cc1 [Compound B10A] | 23.3 | 3 | -10.3 | -7.9 | 4.4 | -0.1 | −5.2 |  |  |  |  |  |  |  |  |  |  |  | 
2 | CC(C)(C)c1ccc(S(=O)(=O)NC[C@@H](O)C[C@@H](Cc2ccccc2)C(=O)N[C@H]2c3ccccc3C[C@H]2O)cc1 [A, reference compound] |  |  |  |  |  |  |  | 0 | 18.1 | 56.7 | 9.7 | 13 | 72.1 |  |  |  |  |  | 
3 | O=C(NC1CCCCCC1)[C@@H](Cc1ccccc1)C[C@H](O)CNS(=O)(=O)c1ccc([N+](=O)[O-])cc1 [Compound B5B] | -4 | 3.6 | 6.8 | 15.5 | 10.6 | 14.3 | 10.55 |  |  |  |  |  |  |  |  |  |  |  | 
4 | C#CCNC(=O)[C@@H](Cc1ccccc1)C[C@H](O)CNS(=O)(=O)c1ccc([N+](=O)[O-])cc1 [Compound B21B] | 3.3 | 3.4 | 7 | 3.1 | 7.3 | 13.5 | 10.25 |  |  |  |  |  |  |  |  |  |  |  | 
5 | O=C(NN1CCCCC1)[C@H](Cc1ccccc1)C[C@H](O)CNS(=O)(=O)c1ccc([N+](=O)[O-])cc1 [Compound B6A] | -6.4 | 4.4 | 6.5 | 6.3 | 7.1 | 4.4 | 5.45 |  |  |  |  |  |  |  |  |  |  |  | 
6 | O=C(NC1CCCc2ccccc21)[C@H](Cc1ccccc1)C[C@H](O)CNS(=O)(=O)c1ccc([N+](=O)[O-])cc1 (some centres unmarked) [Compound B13A] | 3.3 | 7.4 | 10.2 | 8.8 | 12.4 | 17.5 | 13.85 |  |  |  |  |  |  |  |  |  |  |  | 
7 | O=C(NC1CCCC1)[C@@H](Cc1ccccc1)C[C@H](O)CNS(=O)(=O)c1ccc([N+](=O)[O-])cc1 [Compound B1B] | -5.7 | -6.1 | 1.3 | -7.5 | -2.5 | -0.3 | 0.5 |  |  |  |  |  |  |  |  |  |  |  | 
8 | O=C(NC[C@@H](O)C[C@@H](Cc1ccccc1)C(=O)N[C@H]1c2ccccc2C[C@H]1O)c1cccc(Br)c1 [Q] |  |  |  |  |  |  | 12.75 | -3.8 | 6.8 | 5.2 | 17.4 | 18.5 | 20.3 |  |  |  |  |  | 

Continued, values first:

Row | inhibition at 0.5 µM ([1]; Batch 2) [%] | inhibition at 1 µM ([1]; Batch 2) [%] | inhibition at 5 µM ([1]; Batch 2) [%] | inhibition at 0.5 µM ([2]; Batch 2) [%] | inhibition at 1 µM ([2]; Batch 2) [%] | inhibition at 5 µM ([2]; Batch 2) [%] | % Activity [3] [%] | inhibition at 0.5 µM ([1]; Batch 1) [%] | inhibition at 1 µM ([1]; Batch 1) [%] | inhibition at 5 µM ([1]; Batch 1) [%] | inhibition at 0.5 µM ([2]; Batch 1) [%] | inhibition at 1 µM ([2]; Batch 1) [%] | inhibition at 5 µM ([2]; Batch 1) [%] | inhibition at 0.5 µM ([1]; Batch 3) [%] | inhibition at 1 µM ([1]; Batch 3) [%] | inhibition at 5 µM ([1]; Batch 3) [%] | inhibition at 0.5 µM ([2]; Batch 3) [%] | inhibition at 1 µM ([2]; Batch 3) [%] | inhibition at 5 µM ([2]; Batch 3) [%] | SMILES
9 |  |  |  |  |  |  | 26.2 | 45.8 | 16.1 | 25.8 | 20.8 | 20.2 | 26.6 |  |  |  |  |  |  | C#CCCCC(=O)NC[C@@H](O)C[C@@H](Cc1ccccc1)C(=O)N[C@H]1c2ccccc2C[C@H]1O [Compound A23]
10 |  |  |  |  |  |  | 15.95 |  |  |  |  |  |  | 3.9 | 0.5 | 0.1 | 15.2 | 19.6 | 31.8 | O=C(NC1CCCC1)c1ccc(S(=O)(=O)NC[C@@H](O)C[C@@H](Cc2ccccc2)C(=O)N[C@H]2c3ccccc3C[C@H]2O)cc1 [Compound X097]
11 |  |  |  |  |  |  | 17.45 | 3.7 | 1.4 | 19.7 | 11.8 | 15.9 | 15.2 |  |  |  |  |  |  | NC[C@@H](O)C[C@@H](Cc1ccccc1)C(=O)N[C@H]1c2ccccc2C[C@H]1O [Compound A28]
12 |  |  |  |  |  |  | 15.3 |  |  |  |  |  |  | 0.3 | 3.1 | -1.2 | 2.5 | 5.9 | 31.8 | CCN(CC)C(=O)c1ccc(S(=O)(=O)NC[C@@H](O)C[C@@H](Cc2ccccc2)C(=O)N[C@H]2c3ccccc3C[C@H]2O)cc1 [Compound X096]
13 | 15.6 | 38.6 | 92 | 38.7 | 70.9 | 100 |  | 37.7 | 74.6 | 88.7 | 42.6 | 71.3 | 99.1 | 2.6 | -2.6 | 29.3 | 74.3 | 86.1 | 97.8 | O=C(N[C@H]1c2ccccc2C[C@H]1O)[C@H](Cc1ccccc1)C[C@H](O)CNS(=O)(=O)c1ccc([N+](=O)[O-])cc1 [Compound A27, reference compound]
14 |  |  |  |  |  |  | 34.25 |  |  |  |  |  |  | 6.3 | -1.6 | -1 | 13.8 | 22.1 | 69.5 | CNC(=O)c1ccc(S(=O)(=O)NC[C@@H](O)C[C@@H](Cc2ccccc2)C(=O)N[C@H]2c3ccccc3C[C@H]2O)cc1 [Compound X095]
15 |  |  |  |  |  |  | 2.65 |  |  |  |  |  |  | 4.2 | -1.6 | 8.7 | 9.4 | -1.4 | -3.4 | CN(C)c1ccc(S(=O)(=O)NC[C@@H](O)C[C@@H](Cc2ccccc2)C(=O)N[C@H]2c3ccccc3C[C@H]2O)cc1 [Compound X083]
16 |  |  |  |  |  |  | 5.05 | -6.8 | -5.7 | -6.3 | 15.2 | 13.5 | 16.4 |  |  |  |  |  |  | O=C(NC[C@@H](O)C[C@@H](Cc1ccccc1)C(=O)N[C@H]1c2ccccc2C[C@H]1O)c1cccnc1 [Compound A16]
